Source: patent publication US7569542B2, “Anti-microbial targeting chimeric pharmaceutical” (priority 1999, dated 2009)
Where no end group is shown, it is not given here.

How the values were obtained:
Host cells = assay: Minimal Inhibitory Concentrations; format: cell-based
S. sanguis [1] = system: S. sanguis
PAK cells [2] = assay: Competition-binding experiment, labeled vs unlabeled Cat-1, fluorescent microscopy; design: species or system P. aeruginosa
Method: To further confirm the specificity of Cat-1 binding to Pak cells, competition-binding experiments were conducted. Labeled Cat-1 was mixed with increasing concentrations of unlabeled Cat-1, and fluorescent labeling of the target bacterial cells was measured by fluorescent microscopy.

[3] = Antimicrobial activity of targeting peptide alone; format: cell-based
B. cepacia = format: cell-based
Method: (§1) To test the antimicrobial activity of the fusion peptides against target bacteria, a panel of bacteria, both gram positive and gram negative, were tested.

E. coli 3132 (wt) = format: cell-based
Method: as §1

E. coli Aw405 = format: cell-based
Method: as §1

E. coli Mg1665 (smooth) = format: cell-based
Method: as §1

E. coli W3110 ampR = format: cell-based
Method: as §1

E. coli W3110 [4] = format: cell-based
Method: as §1

Klebsiella Kay2026 = format: cell-based
Method: as §1

Myxococcus = format: cell-based
Method: as §1

P. aeruginosa Pak (ATCC) = format: cell-based
Method: as §1

P. aeruginosa Pak = format: cell-based; settings: for MBC: Pak
Method: as §1

P. fluorescens 1088 = format: cell-based
Method: as §1

P. fluorescens 1089 = format: cell-based
Method: as §1

P. mendocina [5] = format: cell-based
Method: as §1

P. tabaci = format: cell-based
Method: as §1

S. aureus = format: cell-based
Method: as §1

S. mitis = format: cell-based
Method: as §1

S. mutans 140 = format: cell-based
Method: as §1

S. mutans 159 = format: cell-based
Method: as §1

S. oralis = format: cell-based
Method: as §1

S. sanguis [6] = format: cell-based
Method: as §1

Salmonella Lt2 (ATCC) = format: cell-based
Method: as §1

Y. entercolitica = format: cell-based
Method: as §1

P. mendocina [7] = format: cell-based, Pseudomonas mendocina
Method: (§2) Briefly, varying concentrations of peptide G10, G10CatC, or G10CatN was added to 10^5 of target bacterial cells and survivors were counted by plating samples after 0.5, 1, 2 and 4 minutes of peptide exposure.

P. mendocina [8] = assay: Long-term time-kill experiment (up to 2 h); format: cell-based, Pseudomonas mendocina; settings: for time to kill all input P. mendocina cells: 3 μM peptide; for surviving P. mendocina cells: 9 μM peptide
Method: Similar to the short-term kinetic studies described above, treatment with 3 μM G10CatC killed all input P. mendocina cells within 30 min, in contrast, it took 2 h for G10 alone to kill all input P. mendocina cells at the same concentration.

E. coli W3110 [9] = assay: Selective killing in mixed culture of P. mendocina and E. coli W3110; format: cell-based; settings: 6 μM peptide, 4 min; mixed with P. mendocina; preliminary results
Method: (§3) To test if G10CatC can selectively kill its target bacteria in a mixed culture, 10^5 of P. mendocina and E. coli W3110 cells were mixed and treated with 6 μM G10 or G10CatC peptides. Samples were taken at 30 sec. 1 min, 2 min, and 4 min, and survivors were counted by plating assays.

P. mendocina [10] = assay: as above; format: cell-based; settings: 6 μM peptide, 4 min; mixed with E. coli W3110; preliminary results
Method: as §3

S. mutans cells = assay: Selective killing in mixed culture of PAK and S. mutans cells; format: cell-based; settings: 9 μM peptide, within 4 min; mixed with PAK cells
Text: (§4) In contrast, G10CatC killed over 90% of PAK cells, but none of S. mutans cells.

PAK cells [11] = format: cell-based, Pseudomonas aeruginosa PAK; settings: 18 μM peptide, up to 4 min
Method: as §2

PAK cells [12] = assay: Selective killing in mixed culture of PAK and S. mutans cells; format: cell-based, P. aeruginosa; settings: 9 μM peptide, within 4 min; mixed with S. mutans
Text: as §4

Row | Compound | MBC (B. cepacia) [µM] | MBC (E. coli 3132 (wt)) [µM] | MBC (E. coli Aw405) [µM] | MBC (E. coli Mg1665 (smooth)) [µM] | MBC (E. coli W3110 ampR) [µM] | MBC (E. coli W3110 [4]) [µM] | MBC (Klebsiella Kay2026) [µM] | MBC (Myxococcus) [µM] | MBC (P. aeruginosa Pak (ATCC)) [µM] | MBC (P. aeruginosa Pak) [µM] | MBC (P. fluorescens 1088) [µM] | MBC (P. fluorescens 1089) [µM] | MBC (P. mendocina [5]) [µM] | MBC (P. tabaci) [µM] | MBC (S. aureus) [µM] | MBC (S. mitis) [µM] | MBC (S. mutans 140) [µM] | MBC (S. mutans 159) [µM] | MBC (Salmonella Lt2 (ATCC)) [µM] | MBC (Y. entercolitica) [µM] | other results
1 | C[C@H](NC(=O)[C@H](Cc1cnc[nH]1)NC(=O)[C@H](CO)NC(=O)[C@@H](N)CC(=O)O)C(=O)N[C@@H](CCCCN)C(=O)N[C@@H](CCCNC(=N)N)C(=O)N[C@@H](Cc1cnc[nH]1)C(=O)N[C@@H](Cc1cnc[nH]1)C(=O)NCC(=O)N[C@@H](Cc1ccc(O)cc1)C(=O)N[C@@H](CCCCN)C(=O)N[C@@H](CCCNC(=N)N)C(=O)N[C@@H](CCCCN)C(=O)N[C@@H](Cc1ccccc1)C(=O)N[C@@H](Cc1cnc[nH]1)C(=O)N[C@@H](CCC(=O)O)C(=O)N[C@@H](CCCCN)C(=O)N[C@@H](Cc1cnc[nH]1)C(=O)N[C@@H](Cc1cnc[nH]1)C(=O)N[C@@H](CO)C(=O)N[C@@H](Cc1cnc[nH]1)C(=O)N[C@@H](CCCNC(=N)N)C(=O)NCC(=O)N[C@@H](Cc1ccc(O)cc1)C(=O)O [Histatin 5, DSHAKRHHGY KRKFHEKHHS HRGY] |  |  |  |  |  |  |  |  |  |  |  |  |  |  |  |  |  |  |  |  | Minimal Inhibitory Concentrations (Host cells): >50 µM; Minimal Inhibitory Concentrations (S. mutans): ~10 µM; Minimal Inhibitory Concentrations (S. sanguis [1]): ~10 µM
2 | KKHRKHRKHRKH (Design peptide) [Cat-1, 61] |  |  |  |  |  |  |  |  |  |  |  |  |  |  |  |  |  |  |  |  | fluorescent signal of labeled Cat-1 on PAK cells (PAK cells [2]; 10× molar excess unlabeled Cat-1): completely abolished; fluorescent signal of labeled Cat-1 on PAK cells (PAK cells [2]; equal molar concentration of unlabeled Cat-1 added): reduced; antimicrobial activity [3]: does not have any antimicrobial activity
3 | KKHRKHRKHRKHGGSGGSKNLRRIIRKGIHIIKKYG [G10CatC] | 13 | 5.8 | 11.6 | 2.9 | 2.9 | 2.81 | 11.6 to 23.2 | >11.6 | 4.9 | 1.4 to 2.9 | 1.45 | 2.9 | 1.4 to 2.4 | 2.175 | >23.2 | >58 | 3.6 to 7.25 | 3.6 to 7.25 | 11.6 to 23.2 | 23.2 | enhancement of killing activity relative to G10 (P. aeruginosa Pak; against Pak, from MBC): 38 fold; MBC relative to G10 alone (higher) (P. mendocina [5]; P. mendocina): 2 ×; decrease of killing activity relative to G10 (P. mendocina [5]; against P. mendocina, from MBC): 2 fold; MBC (S. oralis): >58 µM; MBC (S. sanguis [6]): 3.6 to 7.25 µM; time to reduce live P. mendocina cells to below detectable levels (P. mendocina [7]; 3 μM peptide): ≤ 4 min; time to kill all input P. mendocina cells (P. mendocina [8]): ≤ 30 min; surviving P. mendocina cells (P. mendocina [8]; after 2 minutes of treatment): no surviving P. mendocina cells were recovered; live W3110 cells in mixed culture (E. coli W3110 [9]): remained nearly unchanged; live P. mendocina cells in mixed culture (P. mendocina [10]): no live P. mendocina cells could be detected; killing of S. mutans cells in mixed culture (S. mutans cells): none
4 | KNLRRIIRKGIHIIKKYG [G10, KNLRRIIRKGIHIIKKYG, reference compound] | 23 | 11.25 | 2.8 | 2.8 | 2.8 | 1.4 | >11.25 | >11.25 | 42.18 | 54.5 | 1.4 | >11.25 | 1.05 | 5.625 | >22.5 | >58 | 3.5 to 7.03 | 3.5 to 7.03 | >22.5 | 22.5 | MBC (S. oralis): >58 µM; MBC (S. sanguis [6]): 3.5 to 7.03 µM; killing activity (P. mendocina [7]; 3 μM peptide, within 4 min): did not display any killing activity; killing activity (PAK cells [11]): did not show any killing activity; time to kill all input P. mendocina cells (P. mendocina [8]): 120 min; surviving P. mendocina cells (P. mendocina [8]; after 30 minutes of exposure): a significant number of cells were recovered; live W3110 cells in mixed culture (E. coli W3110 [9]): did not affect the survival; live P. mendocina cells in mixed culture (P. mendocina [10]): did not affect the survival; killing of PAK cells in mixed culture (PAK cells [12]): did not kill any of the cells; killing of S. mutans cells in mixed culture (S. mutans cells): did not kill any of the cells
5 | KNLRRIIRKGIHIIKKYGGGSGGSKKHRKHRKHRKH [G10CatN] | 11.6 | 11.6 | >23.2 | >23.2 |  | >11.6 | >11.6 | >11.6 | 17.4 | 45 | 1.45 | 11.6 | 2.8 | >11.6 | >23.2 |  |  |  | >23.2 | >23.2 | killing (P. mendocina [7]; any concentration tested, through 4 minutes): no killing
